# Measurements taken from US10597366B2, “Aryl ethers and uses thereof” (Peloton Therapeutics, Inc., priority 2013, dated 2020).
# Read-outs that look alike come from different tables or passages of the source.
# Test system: 786-O-Hif-Luc cells (luciferase gene driven by multiple HIF responsive elements)
# Assay: Luciferase Assay
# Type: cell-based
# Settings: 24 h, read-out: Mean Luciferease EC50
# Protocol: A pool of infected cells were then selected against 2 μg/mL of puromycin (P8833, Sigma) for 10 days followed by limited dilution to select single clones.
# Each concentration was tested in triplicate. After about 24 hours, luciferase activity was determined using ONE-Glo Luciferase Assay Reagent (E6110, Promega) following the manufacturer's recommended procedure. EC50 were calculated by using Dotmatics software.
# [1] = 786-O-Hif-Luc cells, about 24 hours
SMILES,EC50 [1],EC50
"O=S(=O)(c1ccc(Oc2cc(F)cc(F)c2)c2c1CC(O)C2)C(F)F (centres unmarked) [Compound 22, 4-((Difluoromethyl)sulfonyl)-7-(3,5-difluorophenoxy)-2,3-dihydro-1H-inden-2-ol]",1290 nM,–
"Cc1nnc(/C=C/c2c(S(=O)(=O)C(F)(F)F)ccc(Oc3cc(F)cc(C#N)c3)c2C)o1 [Compound 151, 3-Fluoro-5-[2-methyl-3-[(E)-2-(5-methyl-1,3,4-oxadiazol-2-yl)vinyl]-4-(trifluoromethylsulfonyl)phenoxy]benzonitrile]",8900 nM,–
"CS(=O)(=O)c1ccc(Oc2cc(F)cc(C#N)c2)c(C#N)c1Cl [Compound 152, 2-chloro-6-(3-cyano-5-fluorophenoxy)-3-(methylsulfonyl)benzonitrile]",2100 nM,–
"O=S(=O)(c1ccc(Oc2cc(F)cc(Cl)c2)c(Br)c1C=NO)C(F)(F)F [Compound 107, 2-Bromo-3-(3-chloro-5-fluorophenoxy)-6-((trifluoromethyl)sulfonyl)benzaldehyde oxime]",520 nM,–
"N#Cc1cc(F)cc(Oc2ccc(S(=O)(=O)C(F)(F)F)cc2C#N)c1 [Compound 120, 2-(3-Cyano-5-fluorophenoxy)-5-((trifluoromethyl)sulfonyl)benzonitrile]",7400 nM,–
"CS(=O)(=O)c1ccc(Oc2cc(F)cc(C#N)c2)c2c1C(=O)C(F)(Cl)C2 (centres unmarked) [Compound 269, 3-((2-chloro-2-fluoro-7-(methylsulfonyl)-1-oxo-2,3-dihydro-1H-inden-4-yl)oxy)-5-fluorobenzonitrile]",19400 nM,–
"O=S(=O)(c1ccc(Oc2ccc(F)c(Cl)c2)c2c1[C@H](O)C(F)(F)C2)C(F)F [Compound 26, (S)-4-(3-Chloro-4-fluorophenoxy)-7-((difluoromethyl)sulfonyl)-2,2-difluoro-2,3-dihydro-1H-inden-1-ol]",68 nM,–
"Cc1c(S(=O)(=O)C(F)F)ccc(Oc2cc(F)cc(Cl)c2)c1C#N [Compound 32, 6-(3-Chloro-5-fluorophenoxy)-3-((difluoromethyl)sulfonyl)-2-methylbenzonitrile]",1900 nM,–
"N#Cc1cccc(Oc2ccc(S(=O)(=O)C(F)F)c(C#N)c2Cl)c1 [Compound 40, 2-Chloro-3-(3-cyanophenoxy)-6-((difluoromethyl)sulfonyl)benzonitrile]",1200 nM,–
"O=S(=O)(c1ccc(Oc2cc(F)cc(Cl)c2)c(Br)c1)C(F)F [Compound 131, 2-Bromo-1-(3-chloro-5-fluorophenoxy)-4-((difluoromethyl)sulfonyl)benzene]",2000 nM,–
"O=Cc1c(S(=O)(=O)C(F)(F)F)ccc(Oc2cc(F)cc(Cl)c2)c1Br [Compound 101, 2-Bromo-3-(3-chloro-5-fluorophenoxy)-6-((trifluoromethyl)sulfonyl)benzaldehyde]",320 nM,–
"O=S(=O)(CF)c1ccc(Oc2cc(F)cc(Cl)c2)c2c1[C@H](O)CC2 [Compound 61, (R)-4-(3-Chloro-5-fluorophenoxy)-7-((fluoromethyl)sulfonyl)-2,3-dihydro-1H-inden-1-ol]",110 nM,–
"N#Cc1cc(F)cc(Oc2ccc(S(=O)(=O)CF)c3c2CC[C@H]3O)c1 [Compound 62, (R)-3-Fluoro-5-((7-((fluoromethyl)sulfonyl)-1-hydroxy-2,3-dihydro-1H-inden-4-yl)oxy)benzonitrile]",180 nM,–
"O=S(=O)(CF)c1ccc(Oc2cc(F)cc(Cl)c2)c2c1[C@H](O)C(F)(F)C2 [Compound 65, (S)-4-(3-Chloro-5-fluorophenoxy)-2,2-difluoro-7-((fluoromethyl)sulfonyl)-2,3-dihydro-1H-inden-1-ol]",6 nM,–
"N#Cc1cc(F)cc(Oc2ccc(S(=O)(=O)C(F)F)c3c2CCC3F)c1 (centres unmarked) [Compound 202, 3-((7-((Difluoromethyl)sulfonyl)-1-fluoro-2,3-dihydro-1H-inden-4-yl)oxy)-5-fluorobenzonitrile]",3600 nM,–
"O=C1c2c(S(=O)(=O)C(F)F)ccc(Oc3ccc(F)c(F)c3)c2CC1(F)F [Compound 195, 7-((Difluoromethyl)sulfonyl)-4-(3,4-difluorophenoxy)-2,2-difluoro-2,3-dihydro-1H-inden-1-one]",2560 nM,–
"CS(=O)(=O)c1ccc(Oc2cccc(C#N)c2)c2c1[C@H](O)C(F)(F)C2 [Compound 162, 3-[(1S)-2,2-Difluoro-1-hydroxy-7-methylsulfonyl-indan-4-yl]oxybenzonitrile]",63 nM,–
"CS(=O)(=O)c1ccc(Oc2cc(F)cc(C#N)c2)c2c1[C@H](O)C(F)(F)C2 [Compound 163, (S)-3-((2,2-Difluoro-1-hydroxy-7-(methylsulfonyl)-2,3-dihydro-1H-inden-4-yl)oxy)-5-fluorobenzonitrile]",–,23 nM
"CS(=O)(=O)c1ccc(Oc2cncc(C#N)c2)c2c1[C@H](O)[C@H](F)C2 [Compound 313, 5-(((1S,2R)-2-fluoro-1-hydroxy-7-(methylsulfonyl)-2,3-dihydro-1H-inden-4-yl)oxy)nicotinonitrile]",1100 nM,–

SMILES,EC50 [1],EC50
"CS(=O)(=O)c1ccc(Oc2cc(F)cc(C#N)c2)c2c1[C@H](O)[C@H](F)C2 [Compound 231, 3-Fluoro-5-(((1S,2R)-2-fluoro-1-hydroxy-7-(methylsulfonyl)-2,3-dihydro-1H-inden-4-yl)oxy)benzonitrile]",–,36 nM
"O=S(=O)(CF)c1ccc(Oc2cc(F)cc(F)c2)c2c1C(O)CC2 [Compound 59, (R)-4-(3,5-Difluorophenoxy)-7-((fluoromethyl)sulfonyl)-2,3-dihydro-1H-inden-1-ol]",90 nM,–
"N#Cc1cc(F)cc(Oc2ccc(S(=O)(=O)C(F)F)c3c2CC(F)(F)[C@@H]3O)c1 [Compound 237, (R)-3-((7-((difluoromethyl)sulfonyl)-2,2-difluoro-1-hydroxy-2,3-dihydro-1H-inden-4-yl)oxy)-5-fluorobenzonitrile]",120 nM,–
"NS(=O)(=O)c1ccc(Oc2cc(F)cc(F)c2)c2c1[C@H](O)C(F)(F)C2 [Compound 256, (S)-7-(3,5-Difluorophenoxy)-2,2-difluoro-3-hydroxy-2,3-dihydro-1H-indene-4-sulfonamide]",–,49 nM
"O=S(=O)(c1ccc(Oc2ccc(F)c3[nH]ncc23)c2c1[C@H](O)C(F)(F)C2)C(F)(F)F [Compound 266, (S)-2,2-difluoro-4-((7-fluoro-1H-indazol-4-yl)oxy)-7-((trifluoromethyl)sulfonyl)-2,3-dihydro-1H-inden-1-ol]",30 nM,–
"Cc1c(Oc2cc(F)cc(C#N)c2)ccc(S(=O)(=O)C(F)(F)F)c1CO [Compound 146, 3-Fluoro-5-[3-(hydroxymethyl)-2-methyl-4-(trifluoromethylsulfonyl)phenoxy]benzonitrile]",480 nM,–
"O=S(=O)(c1ccc(Oc2cc(F)cc(Cl)c2)c(Cl)c1CNCCF)C(F)(F)F [Compound 114, N-(2-Chloro-3-(3-chloro-5-fluorophenoxy)-6-((trifluoromethyl)sulfonyl)benzyl)-2-fluoroethan-1-amine]",9000 nM,–
"CS(=O)(=O)c1ccc(Oc2cc(F)cc(C#N)c2)c2c1C(O)CC2 (centres unmarked) [Compound 222, 3-Fluoro-5-((1-hydroxy-7-(methylsulfonyl)-2,3-dihydro-1H-inden-4-yl)oxy)benzonitrile]",1800 nM,–
"O=S(=O)(c1ccc(Oc2cc(F)cc(F)c2)c(Cl)c1CO)C(F)F [Compound 168, (2-Chloro-6-((difluoromethyl)sulfonyl)-3-(3,5-difluorophenoxy)phenyl)methanol]",310 nM,–
"CS(=O)(=O)c1ccc(Oc2cc(F)cc(C#N)c2)c2c1[C@H](O)C(F)(F)[C@H]2F [Compound 293, 3-fluoro-5-[(1S,3S)-2,2,3-trifluoro-1-hydroxy-7-methylsulfonyl-indan-4-yl]oxy-benzonitrile]",780 nM,–
"O=S(=O)(c1ccc(Oc2cc(Cl)cc(Cl)c2)c(Br)c1)C(F)(F)F [Compound 172, 2-Bromo-1-(3,5-dichlorophenoxy)-4-((trifluoromethyl)sulfonyl)benzene]",3410 nM,–
"C[S+]([O-])c1ccc(Oc2cc(F)cc(C#N)c2)c2c1[C@H](O)C(F)(F)C2 (stereo partly drawn) [Compound 272, 3-[(1S)-2,2-Difluoro-1-hydroxy-7-methylsulfinyl-indan-4-yl]oxy-5-fluoro-benzonitrile]",2280 nM,–
"O=S(=O)(c1ccc(Oc2ccc(F)c(F)c2)c2c1C(O)CC2)C(F)(F)F (centres unmarked) [Compound 214, 4-(3,4-Difluorophenoxy)-7-((trifluoromethyl)sulfonyl)-2,3-dihydro-1H-inden-1-ol]",1270 nM,–
"N#Cc1c(Oc2cc(F)cc(Cl)c2)ccc(S(=O)(=O)C(F)F)c1CO [Compound 35, 6-(3-Chloro-5-fluorophenoxy)-3-((difluoromethyl)sulfonyl)-2-(hydroxymethyl)benzonitrile]",> 20000 nM,–
"CS(=O)(=O)c1ccc(Oc2cc(F)cc(C#N)c2)c2c1[C@H](O)[C@H](F)[C@@H]2O [Compound 296, 3-fluoro-5-[(1S,2R,3R)-2-fluoro-1,3-dihydroxy-7-methylsulfonyl-indan-4-yl]oxy-benzonitrile]",1300 nM,–
"Cc1c(Oc2cc(F)cc(C#N)c2)ccc(S(=O)(=O)C(F)(F)F)c1C=O [Compound 145, 3-Fluoro-5-[3-formyl-2-methyl-4-(trifluoromethylsulfonyl)phenoxy]benzonitrile]",430 nM,–
"CS(=O)(=O)c1ccc(Oc2cc(F)cc(C#N)c2)c2c1C(O)C(F)C2 (centres unmarked) [Compound 232, 3-Fluoro-5-((2-fluoro-1-hydroxy-7-(methylsulfonyl)-2,3-dihydro-1H-inden-4-yl)oxy)benzonitrile]",–,35 nM
"N#Cc1cc(F)cc(Oc2ccc(S(=N)(=O)C(F)(F)F)c3c2CCC3O)c1 (stereo not drawn) [Compound 258, 3-Fluoro-5-((1-hydroxy-7-(S-(trifluoromethyl)sulfonimidoyl)-2,3-dihydro-1H-inden-4-yl)oxy)benzonitrile]",2100 nM,–
"O=S(=O)(CF)c1ccc(Oc2cncc(Cl)c2)c2c1[C@H](O)C(F)(F)C2 [Compound 187, (S)-4-((5-Chloropyridin-3-yl)oxy)-2,2-difluoro-7-((fluoromethyl)sulfonyl)-2,3-dihydro-1H-inden-1-ol]",98 nM,–
